Earlier results on three compounds are cited in patent US20100028296A1, “Use of cytokine-derived peptides in treatment of pain and neurodegenerative disease” (priority 2005, published 2010).

Where no end group is shown, it is not given here.

For series [1] the following is noted: native dimer, approximately 37 kDa.
Series [2] relates to dynorphin-induced, IL-1β-mediated mechanical allodynia. To be noted: intrathecal; administered 30 minutes or 6 hours after induction of allodynia.
The subject of series [3] is excitotoxic spinal cord injury. Particulars: given 30 minutes following injury.
Series [4] concerns immunomodulatory functions known for human IL-10. To be noted: at generally different dosage levels.
The subject of series [5] is chronic constriction injury model of neuropathic pain. Particulars: in vivo.

For the compound “IL-10: anti-inflammatory cytokine, dimer of approximately 37 kDa in its native state”, in series [1], the “crossing of the intact blood brain barrier” value is on record as “does not cross the intact blood brain barrier in appreciable amounts”. Besides, the “onset of mechanical allodynia” value in series [2] is “blocks the onset”. For the same compound, the pathological pain behaviors result in series [3] is “decreased pathological pain behaviors”.
For “AYMTMKIRN [IT, C-terminal nonapeptide from human IL-10 protein]”, the “functional activities compared with intact IL-10” value in series [4] is reported as “shares some, but not all, of the functional activities of intact IL-10”.
As to `O=C1CCC(N2C(=O)c3ccccc3C2=O)C(=O)N1` (stereo not drawn) [thalidomide], in series [5], the mechanical allodynia entry is listed as “reduces” and the thermal hyperalgesia result is on record as “reduces”.
